# Measurements: article PMC5699943 (Biotechnology and bioengineering, 2017)
# What was measured:
# Test in all cases: formaldehyde-responsive FrmR GFP reporter in E. coli cells
# Type in all cases: cell-based
# Conditions in all cases: whole cells, 0-500 mM methanol, 2 h, 37°C, NAD-dependent
# AdhA from C. glutamicum = target: T1, AdhA from C. glutamicum (Corynebacterium glutamicum, UniProt Q8NLX9)
# T1 sequence (Q8NLX9 1-345): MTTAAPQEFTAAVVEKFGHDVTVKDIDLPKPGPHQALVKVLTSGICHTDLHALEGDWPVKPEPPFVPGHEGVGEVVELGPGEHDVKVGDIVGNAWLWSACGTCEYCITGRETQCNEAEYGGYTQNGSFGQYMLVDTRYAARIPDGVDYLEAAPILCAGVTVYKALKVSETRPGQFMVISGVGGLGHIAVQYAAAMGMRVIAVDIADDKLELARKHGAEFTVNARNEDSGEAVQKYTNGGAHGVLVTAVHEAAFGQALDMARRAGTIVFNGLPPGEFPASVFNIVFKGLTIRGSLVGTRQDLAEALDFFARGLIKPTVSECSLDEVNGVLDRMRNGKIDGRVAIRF
# [1] = target: T2, mdh2 from Cupriavidus necator (Cupriavidus necator, UniProt F8GNE5)
# T2 sequence (F8GNE5 1-390): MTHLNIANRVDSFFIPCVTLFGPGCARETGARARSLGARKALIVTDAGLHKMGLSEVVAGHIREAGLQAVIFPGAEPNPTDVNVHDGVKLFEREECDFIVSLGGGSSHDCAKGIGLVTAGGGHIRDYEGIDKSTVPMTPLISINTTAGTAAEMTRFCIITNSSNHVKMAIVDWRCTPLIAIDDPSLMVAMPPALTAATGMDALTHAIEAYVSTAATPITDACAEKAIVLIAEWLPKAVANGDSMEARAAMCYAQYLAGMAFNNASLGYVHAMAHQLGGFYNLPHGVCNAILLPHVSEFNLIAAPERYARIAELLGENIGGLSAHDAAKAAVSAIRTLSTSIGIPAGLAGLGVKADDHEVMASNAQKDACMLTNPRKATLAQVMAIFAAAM
# [2] = target: T3, mdh from Geobacillus stearothermophilus (Geobacillus stearothermophilus, UniProt P42327)
# T3 sequence (P42327 1-339): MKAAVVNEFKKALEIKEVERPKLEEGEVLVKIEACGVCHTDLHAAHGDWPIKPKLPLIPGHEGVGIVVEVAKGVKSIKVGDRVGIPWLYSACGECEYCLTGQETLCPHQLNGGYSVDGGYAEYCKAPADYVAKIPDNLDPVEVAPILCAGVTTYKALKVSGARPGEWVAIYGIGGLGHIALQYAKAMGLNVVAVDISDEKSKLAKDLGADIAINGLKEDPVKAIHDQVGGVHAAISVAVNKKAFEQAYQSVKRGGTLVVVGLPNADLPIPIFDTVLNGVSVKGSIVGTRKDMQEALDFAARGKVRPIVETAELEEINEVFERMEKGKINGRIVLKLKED
structure (smiles),measurement,setting,value
CO [methanol],formaldehyde-responsive FrmR GFP reporter in E. coli cells,AdhA from C. glutamicum,"After two hours, signal was detected for all variants except Mdh1"
same,formaldehyde-responsive FrmR GFP reporter in E. coli cells,[1],"After two hours, signal was detected for all variants except Mdh1"
same,formaldehyde-responsive FrmR GFP reporter in E. coli cells,[2],"After two hours, signal was detected for all variants except Mdh1"
